Patent US20170165317A1, “METHOD FOR MITIGATING OR ALLEVIATING SYNAPTIC AND COGNITIVE DEFICITS” (Trustees of Dartmouth College, priority 2013, published 2017)

Legend:
CA1 hippocampal region = assay: LTP of fEPSPs in CA1 of acute hippocampal slices exposed to protofibrillar Aβ42; type: cell-based, mice; conditions: 50 nM VO-OHpic 1 hour before addition of 1 μM Aβ42
Description: Mice were anesthetized with sodium pentothal (20 mg/kg ip) and decapitated. The brain was rapidly removed to ice-cold, oxygenated, dissection solution. Coronal slices (300 μm) were made with a vibratome (LEICA VT1200S) and slices were moved to a recovery chamber containing aCSF at room temperature for at least 1.5 hour before recording.
A concentric bipolar platinum-iridium stimulation electrode and a low-resistance glass recording microelectrode filled with aCSF (3-4 MΩ resistance) were placed in CA1 stratum radiatum to record the extracellular field excitatory postsynaptic potentials (fEPSPs). For each slice, an input-output curve was recorded to compare basal synaptic transmission at different conditions. This curve was also used to set the baseline fEPSP at ≈30% (for LTP experiments) or ≈50% (for LTD experiments) of maximal slope. Baseline stimulation was delivered every 15 seconds (0.01 ms duration pulses) for at least 20 minutes before beginning the experiment to ensure stability of the response. LTP was induced by using θ-burst stimulation (4 pulses at 100 Hz, with the bursts repeated at 5 Hz and each tetanus including three 10-burst trains separated by 15 seconds). LTD was induced using 900 pulses at 1 Hz. Responses were recorded for 1 hour after induction of LTP or LTD. […]

[1] = system: APPswe/lnd-expressing neurons; assay: Paired whole-cell recording of AMPAR-mediated EPSCs in APPswe/lnd-expressing CA1 neurons of organotypic hippocampal slices; type: cell-based, rat; conditions: 15 nM bPV(HOpic) or 50 nM VO-OHpic during expression
Description: The effect of recombinant protein expression on synaptic transmission was evaluated by simultaneous double whole-cell recordings from pairs of nearby infected and uninfected CA1 neurons, under voltage clamp, while stimulating presynaptic Schaffer collateral fibers (under this configuration, recombinant proteins are expressed exclusively in the postsynaptic neuron).
The different versions of APP (APPwt, APPswe/lnd APPMV) and EGFP were co-expressed using an internal ribosomal entry site (IRES) construct. The EGFP-tagged versions of PTEN have been described (Jurado, et al. (2010) EMBO J. 29:2827-2840). All constructs were prepared in pSinRep5 for expression using Sindbis virus. Recombinant proteins were expressed in hippocampal CA1 pyramidal neurons from organotypic slice cultures. Organotypic hippocampal slices were prepared from postnatal day 5-7 rats and cultured during 6-8 days.
The external solution (aCSF) contained 119 mM NaCl, 2.5 mM KCl, 1 mM NaH2PO4, 11 mM glucose, 26 mM NaHCO3, 4 mM MgCl2, 4 mM CaCl2, 100 μM picrotoxin and 2 μM 2-chloroadenosine, pH 7.4, and was gassed with 95% O2 and 5% CO2. […] Bipolar stimulating electrodes were placed over Schaffer collateral fibers between 250 and 300 μm from the CA1 recorded cells, and synaptic responses were evoked with single voltage pulses (200 μs, up to 30 V). […]

O=C(O)c1ncccc1O.O=C(O)c1ncccc1O.[O]=[V][O-] [VO-OHpic]
LTP expression in presence of Aβ42 (CA1 hippocampal region): rescued the expression of LTP | AMPAR-mediated EPSCs in APPswe/lnd-expressing neurons relative to uninfected cells [1]: no longer depressed
